Data taken from ChEMBL document CHEMBL3046501, “Synthesis, characterization & anticonvulsant activity of amide derivatives of 4-amino-1,2-naphthoquinone” (Med Chem Res, 2013).
The source made the active and inactive calls. The calls are words filed in the database; no cut-off is given here.

Tests used:
Mus musculus [1] = assay: Anticonvulsant activity in Swiss albino Mus musculus (mouse) assessed as protection against maximal electroshock-induced seizures at 10 mg/kg, ip after 4 hr; type: functional, organism-based; design: dose 10 mg/kg
Mus musculus [2] = assay: Anticonvulsant activity in Swiss albino Mus musculus (mouse) assessed as protection against maximal electroshock-induced seizures at 10 mg/kg, ip after 2 hr; type: functional, organism-based; design: dose 10 mg/kg
Mus musculus [3] = assay: Anticonvulsant activity in Swiss albino Mus musculus (mouse) assessed as protection against maximal electroshock-induced seizures at 20 mg/kg, ip after 4 hr; type: functional, organism-based; design: dose 20 mg/kg
Mus musculus [4] = assay: Anticonvulsant activity in Swiss albino Mus musculus (mouse) assessed as protection against maximal electroshock-induced seizures at 40 mg/kg, ip after 3 hr; type: functional, organism-based; design: dose 40 mg/kg
Mus musculus [5] = assay: Anticonvulsant activity in Swiss albino Mus musculus (mouse) assessed as protection against subcutaneous pentylenetetrazol-induced seizures at 20 mg/kg, ip after 0.5 hr; type: functional, organism-based; design: dose 20 mg/kg
Mus musculus [6] = assay: Anticonvulsant activity in Swiss albino Mus musculus (mouse) assessed as protection against maximal electroshock-induced seizures at 40 mg/kg, ip after 1 hr; type: functional, organism-based; design: dose 40 mg/kg
Mus musculus [7] = assay: Anticonvulsant activity in Swiss albino Mus musculus (mouse) assessed as protection against subcutaneous pentylenetetrazol-induced seizures at 40 mg/kg, ip after 0.5 hr; type: functional, organism-based; design: dose 40 mg/kg
Mus musculus [8] = assay: Anticonvulsant activity in Swiss albino Mus musculus (mouse) assessed as protection against maximal electroshock-induced seizures at 20 mg/kg, ip after 1 hr; type: functional, organism-based; design: dose 20 mg/kg
Mus musculus [9] = assay: Anticonvulsant activity in Swiss albino Mus musculus (mouse) assessed as protection against subcutaneous pentylenetetrazol-induced seizures at 40 mg/kg, ip after 4 hr; type: functional, organism-based; design: dose 40 mg/kg
Mus musculus [10] = assay: Anticonvulsant activity in Swiss albino Mus musculus (mouse) assessed as protection against maximal electroshock-induced seizures at 20 mg/kg, ip after 3 hr; type: functional, organism-based; design: dose 20 mg/kg
Mus musculus [11] = assay: Neurotoxicity in Swiss albino Mus musculus (mouse) assessed as minimal motor impairment at 30 mg/kg, ip after 4 hr; type: toxicity, organism-based; design: dose 30 mg/kg, route intraperitoneal; settings: in vivo
Mus musculus [12] = assay: Anticonvulsant activity in Swiss albino Mus musculus (mouse) assessed as protection against subcutaneous pentylenetetrazol-induced seizures at 10 mg/kg, ip after 4 hr; type: functional, organism-based; design: dose 10 mg/kg
Mus musculus [13] = assay: Anticonvulsant activity in Swiss albino Mus musculus (mouse) assessed as protection against subcutaneous pentylenetetrazol-induced seizures at 20 mg/kg, ip after 4 hr; type: functional, organism-based; design: dose 20 mg/kg
Mus musculus [14] = assay: Anticonvulsant activity in Swiss albino Mus musculus (mouse) assessed as protection against maximal electroshock-induced seizures at 10 mg/kg, ip after 1 hr; type: functional, organism-based; design: dose 10 mg/kg
Mus musculus [15] = assay: Anticonvulsant activity in Swiss albino Mus musculus (mouse) assessed as protection against maximal electroshock-induced seizures at 40 mg/kg, ip after 4 hr; type: functional, organism-based; design: dose 40 mg/kg
Mus musculus [16] = assay: Anticonvulsant activity in Swiss albino Mus musculus (mouse) assessed as protection against maximal electroshock-induced seizures at 20 mg/kg, ip after 2 hr; type: functional, organism-based; design: dose 20 mg/kg
Mus musculus [17] = assay: Anticonvulsant activity in Swiss albino Mus musculus (mouse) assessed as protection against subcutaneous pentylenetetrazol-induced seizures at 10 mg/kg, ip after 0.5 hr; type: functional, organism-based; design: dose 10 mg/kg
Mus musculus [18] = assay: Anticonvulsant activity in Swiss albino Mus musculus (mouse) assessed as protection against subcutaneous pentylenetetrazol-induced seizures at 5 mg/kg, ip after 0.5 hr; type: functional, organism-based; design: dose 5 mg/kg
Mus musculus [19] = assay: Anticonvulsant activity in Swiss albino Mus musculus (mouse) assessed as protection against maximal electroshock-induced seizures at 5 mg/kg, ip after 1 hr; type: functional, organism-based; design: dose 5 mg/kg
Mus musculus [20] = assay: Anticonvulsant activity in Swiss albino Mus musculus (mouse) assessed as protection against maximal electroshock-induced seizures at 5 mg/kg, ip after 3 hr; type: functional, organism-based; design: dose 5 mg/kg
Mus musculus [21] = assay: Anticonvulsant activity in Swiss albino Mus musculus (mouse) assessed as protection against maximal electroshock-induced seizures at 40 mg/kg, ip after 2 hr; type: functional, organism-based; design: dose 40 mg/kg
Mus musculus [22] = assay: Anticonvulsant activity in Swiss albino Mus musculus (mouse) assessed as protection against maximal electroshock-induced seizures at 10 mg/kg, ip after 3 hr; type: functional, organism-based; design: dose 10 mg/kg

Row | Structure (SMILES) | Activity (Mus musculus [1]) | Activity (Mus musculus [2]) | Activity (Mus musculus [3]) | Activity (Mus musculus [5]) | Activity (Mus musculus [6]) | Activity (Mus musculus [7]) | Activity (Mus musculus [8]) | Activity (Mus musculus [12]) | Activity (Mus musculus [15]) | further results
1 | O=C1C=C(NC(=O)c2cccnc2)c2ccccc2C1=O | inactive | inactive | inactive | – | – | – | – | – | – | –
2 | CCCC(=O)NC1=CC(=O)C(=O)c2ccccc21 | inactive | – | – | Active | Active | Active | Active | – | – | Activity (Mus musculus [4]): Active; Activity (Mus musculus [9]): Active; Activity (Mus musculus [10]): Active
3 | CCC(=O)NC1=CC(=O)C(=O)c2ccccc21 | inactive | – | inactive | – | – | – | Active | inactive | – | Activity (Mus musculus [11]): Non-toxic; Activity (Mus musculus [13]): inactive
4 | CCCCCC(=O)NC1=CC(=O)C(=O)c2ccccc21 | – | Active | – | Active | – | Active | Active | – | Active | Activity (Mus musculus [14]): Active; Activity (Mus musculus [9]): Active; Activity (Mus musculus [16]): Active
5 | O=C1C=C(NC(=O)c2ccccc2)c2ccccc2C1=O | inactive | inactive | inactive | – | – | – | – | inactive | – | Activity (Mus musculus [17]): inactive
6 | O=C1NC(=O)C(c2ccccc2)(c2ccccc2)N1 | – | – | – | – | – | – | – | – | – | Activity (Mus musculus [18]): Active; Activity (Mus musculus [19]): Active; Activity (Mus musculus [20]): Active
7 | CC(C)C(=O)NC1=CC(=O)C(=O)c2ccccc21 | – | – | – | – | Active | Active | Active | – | – | –
8 | CC(=O)NCC(=O)NC1=CC(=O)C(=O)c2ccccc21 | – | – | – | – | – | – | – | inactive | inactive | Activity (Mus musculus [14]): Active; Activity (Mus musculus [4]): inactive; Activity (Mus musculus [10]): Active
9 | CC(=O)Nc1ccc(C(=O)NC2=CC(=O)C(=O)c3ccccc32)cc1 | – | Active | Active | Active | Active | Active | Active | – | Active | Activity (Mus musculus [14]): Active; Activity (Mus musculus [21]): Active; Activity (Mus musculus [13]): inactive; Activity (Mus musculus [9]): Active; Activity (Mus musculus [16]): Active
10 | CC(=O)NC1=CC(=O)C(=O)c2ccccc21 | inactive | – | inactive | – | Active | – | Active | inactive | inactive | Activity (Mus musculus [22]): inactive; Activity (Mus musculus [13]): inactive
11 | CC(C)CC(=O)NC1=CC(=O)C(=O)c2ccccc21 | – | – | – | Active | Active | Active | Active | – | – | Activity (Mus musculus [4]): Active; Activity (Mus musculus [22]): Active; Activity (Mus musculus [10]): Active
